# Legend:
# [1] = Cluster concentration from saturated solutions in a variety of solvents (solubility); type: physicochemical
# Experimental: Optical absorbencies at ˜330 and ˜400 nm were used to track cluster concentration in solution. An approximate molar extinction coefficient was determined by dissolving an isolated and purified cluster sample in water and measuring its absorption. […] Early in the study, the highest sample concentration was 30 mM.
# Substitutional doping of divalent zinc on trivalent tantalum sites provides for a reduction in the overall cluster charge. A reduction in the overall cluster charge is also attainable by adjusting the redox chemistry of the starting mixture. Target materials include (Ta6Cl12)Cl2, (Ta6Br12)Cl2, […], (Ta6Br12)Br2, (Ta6I12)I2, (Ta6Cl11O)Cl2, (Ta6Cl11S)CI2, and (Ta5ZnCl12)Cl2. […] These compositions were targeted to elicit materials with enhanced solubility or molecular handles that could be leveraged to further enhance the solubility. […] In the table below, EtOH stands for ethyl alcohol, EG stands for ethylene glycol, PS80 stands for Polysorbate 80, DMSO stands for dimethyl sulfoxide, and EDTA stands for ethylenediaminetetraacetic acid.
# The solubility of (Ta6Cl12)Cl2 in an aqueous solution of saturated polyvinyl alcohol) (PVA) was investigated by stirring purified (Ta6Cl12)Cl2 with a solution of saturated PVA (MW-50k-85k, hydrolyzed).
# [2] = Experimental: An ultrapurified tantalum cluster of formula (Ta6Cl12)Cl2 (Ultra Purified Ta Ta:TaCl5=1.2) was dissolved in water at a concentration of 355 mM, and in ethylene glycol at a concentration of 592 mM. The resulting water solutions were subjected to radiography to gauge their X-ray absorption characteristics. The samples were loaded into 2 mL polypropylene screw cap tubes with a 1 cm inner diameter. These samples were imaged alongside four calibration standards: 1) aluminum step wedge, 2) polycarbonate step wedge, 3) tantalum foils from 0.0127 to 0.5 mm thick, and 4) a water dilution series containing from 0 to 100% by volume of GE Healthcare's iodinated contrast agent, Visipaque, that contains 320 mg I/mL, in the same 2 mL tubes. Images were collected on a GE Healthcare OEC 9900 Elite digital X-ray Imaging System with a Tri-mode Image Intensifier at 50 KeV with filament currents varied from 0.4 to 9.0 mA. FIG. 2 below is a characteristic image of candidate aqueous samples (first two samples from the left) from the left, marked A and B) alongside calibration samples.
# FIG. 3 is imaged through 8 cm of water serving as a low X-ray energy filter and simulating an arm or leg phantom to produce clinically equivalent images. […]
# [3] = Solubility of purified cluster in saturated aqueous poly(vinyl alcohol) solution; type: physicochemical; conditions: saturated PVA (MW 50k-85k, hydrolyzed), stirred
# Source text: The solubility of (Ta6Cl12)Cl2 in an aqueous solution of saturated polyvinyl alcohol) (PVA) was investigated by stirring purified (Ta6Cl12)Cl2 with a solution of saturated PVA (MW-50k-85k, hydrolyzed). […] It appeared that PVA complexes of tantalum clusters were poorly soluble in water.
Substance,"Cluster concentration from saturated solution, EG [1]","Cluster concentration from saturated solution, H2O [1]","Remaining soluble cluster X-ray absorption, as equivalent Visipaque calibration solution [2]","Remaining soluble cluster X-ray absorption, as equivalent tantalum foil stack thickness [2]","Cluster concentration from saturated solution, 5% EDTA [1]","Cluster concentration from saturated solution, DMSO [1]",Solubility in aqueous solution of saturated poly(vinyl alcohol) [3]
(Ta6Cl12)Cl2 [Ultra purified Ta Red],592 mM,355 mM,~37.5%,~0.0889 mm,,,
"(Ta6Cl12)Cl2 [Ta Red, Ta:TaCl5=1.2]",,59 mM,,,12 mM,2 mM,
(Ta6Cl12)Cl2,,,,,,,most of the color was lost as a deep green precipitate formed
